Tests used:
Assay type in all cases: cell-based
[1] = biological target: T1, Broad substrate specificity ATP-binding cassette transporter ABCG2 (Homo sapiens, UniProt Q9UNQ0); test: Ratio of IC50 for inhibition of ABCG2 (unknown origin) expressed in dog MDCK-II-BCRP cells using Hoechst 33342 as tracer to EC50 for reversal of ABCG2 (unknown origin)-mediated multidrug resistance transfected in dog MDCK-II-BCRP cells in presence of SN-38
T1 sequence (Q9UNQ0 whole entry): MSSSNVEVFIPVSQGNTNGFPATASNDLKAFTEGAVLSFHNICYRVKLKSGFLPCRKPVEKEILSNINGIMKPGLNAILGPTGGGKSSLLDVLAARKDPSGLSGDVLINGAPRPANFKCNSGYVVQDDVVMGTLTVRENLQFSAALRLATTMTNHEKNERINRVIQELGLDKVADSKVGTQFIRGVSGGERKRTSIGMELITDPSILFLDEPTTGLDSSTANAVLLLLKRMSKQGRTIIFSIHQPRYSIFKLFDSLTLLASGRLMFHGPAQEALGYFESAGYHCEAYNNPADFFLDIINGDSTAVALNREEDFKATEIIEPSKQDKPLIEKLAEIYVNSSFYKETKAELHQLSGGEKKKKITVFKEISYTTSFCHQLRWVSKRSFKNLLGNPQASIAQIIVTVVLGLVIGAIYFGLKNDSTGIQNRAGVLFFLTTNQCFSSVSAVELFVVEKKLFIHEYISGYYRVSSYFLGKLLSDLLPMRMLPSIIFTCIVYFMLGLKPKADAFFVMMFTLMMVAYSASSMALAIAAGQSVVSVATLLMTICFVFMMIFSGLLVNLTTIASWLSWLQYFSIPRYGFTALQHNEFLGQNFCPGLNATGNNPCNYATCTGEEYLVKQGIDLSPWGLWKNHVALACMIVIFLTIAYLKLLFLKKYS

[2] = biological target: T1, Broad substrate specificity ATP-binding cassette transporter ABCG2; test: Ratio of IC50 for inhibition of ABCG2 (unknown origin) expressed in dog MDCK-II-BCRP cells using pheophorbide as tracer to EC50 for reversal of ABCG2 (unknown origin)-mediated multidrug resistance transfected in dog MDCK-II-BCRP cells in presence of SN-38
[3] = biological target: T1, Broad substrate specificity ATP-binding cassette transporter ABCG2; test: Reversal of ABCG2 (unknown origin)-mediated multidrug resistance transfected in dog MDCK-II-BCRP cells assessed as increase in SN-38-mediated cytotoxicity incubated for 72 hrs in presence of SN-38 by MTT assay

Row | Compound | Ratio IC50/EC50 [1] | Ratio IC50/EC50 [2] | EC50 [3]
1 | O=C(Cn1nc(C(=O)Nc2cccnc2)c2ccccc21)Nc1ccc(Cl)cc1 | > 5 | > 13 | 
2 | COc1cccc(NC(=O)Cn2nc(C(=O)Nc3cccc(OC)c3)c3ccccc32)c1 |  |  | Not_active
